From patent publication US20120022142A1, “RNA Interference Mediated Inhibition of Signal Transducer and Activator of Transcription 1 (STAT1) Gene Expression Using Short Interfering Nucleic Acid (siNA)” (Merck Sharp & Dohme Corp., priority 2009, published 2012)
[invAb] = inverted abasic unit; d = 2'-deoxy (DNA); m = 2'-O-methyl; r = 2'-OH (RNA); f = 2'-fluoro

Legend:
STAT1 human mRNA = assay: Initial screen of siNAs: STAT1 mRNA knock-down in A549 cells (96-well transfection, Taqman RT-PCR); format: cell-based; conditions: 10 nM siNA, 24 hrs, normalized against GAPDH, average of 2 experiments
Experimental: A549 (human; ATCC cat# CCL-185): Cells were cultured at 37° C. in the presence of 5% CO2 and grown in Ham's F12K medium with 2 mM L-glutamine adjusted to contain 1.5 g/L sodium bicarbonate and supplemented with fetal bovine serum at a final concentration of 10% and 100 μg/mL of streptomycin and 100 U/mL penicillin.
(§1) Cells were plated in all wells of a tissue-culture treated, 96-well plate at a final count of 5000 cells/well in 100 μL of the appropriate culture media. The cells were cultured for 24 hours after plating at 37° C. in the presence of 5% CO2.
(§2) After 24 hours, complexes containing siNA and RNAiMax were created as follows: A solution of RNAiMax diluted 33-fold in OPTI-MEM was prepared. In parallel, solutions of the siNAs for testing were prepared to a final concentration of 120 nM in OPTI-MEM. After incubation of RNAiMax/OPTI-MEM solution at room temperature for 5 min, an equal volume of the siNA solution and the RNAiMax solution were added together for each of the siNAs.
(§3) This solution was incubated at room temperature for 20 minutes. After incubation, 20 uL of the solution was added to each of the relevant wells. The final concentration of siNA in each well was 10 nM and the final volume of RNAiMax in each well was 0.3 ul.
(§4) The time of incubation with the RNAiMax-siNA complexes was 24 hours and there was no change in media between transfection and harvesting, unless otherwise indicated.
(§5) RNA was extracted from a 96-well plate using the TaqMan® Gene Expression Cells-to-CT™ Kit (Cat# 4399002) with a modified protocol. Briefly, a 60 uL (1 plate) or 110 uL (2 plates) of the Lysis Solution with DNase I was dispensed into each well of the Lysis Buffer Plate (twin.tec full skirt plate). The lysis buffer and stop plates were stored at 4° C. until the cells were washed.
(§6) The culture medium was aspirated and discarded from the wells of the culture plate. 50 uL of chilled DPBS was added to each well, then aspirated and discarded. The lysis was performed automatically using a BioMek FX instrument and method. After the Biomek method was completed, the lysis plate was incubated for 2 min at room temperature. The lysis plate can be stored for 2 hours at 4° C., or at −20° C. or −80° C. for two months.
(§7) Each well of the reverse transcription plate required 10 uL of 2× reverse transcriptase Buffer, 1 uL of 20× reverse transcription enzyme and 2 uL of nuclease-free water. The reverse transcription master mix was prepared by mixing 2× reverse transcription buffer, 20× reverse transcription enzyme mix, and nuclease-free water. 13 uL of the reverse transcription master mix was dispensed into each well of the reverse transcription plate (semi-skirted). A separate reverse transcription plate was prepared for each cell plate. The plate was loaded onto a Biomek NX or Biomek FX Dual-96 and the Biomek method was run. The program is programmed to automatically added 7 uL of lysate from the cell lysis procedure described above into each well of the reverse transcription plate. The plate is sealed and spun on a centrifuge (1000 rpm for 30 seconds) to settle the contents to the bottom of the reverse transcription plate. The plate is placed in a thermocycler at 37° C. for 60 min, 95° C. for 5 min, and 4° C. until the plate is removed from the thermocycler. Upon removal, if not used immediately, the plate was frozen at −20° C.
(§8) A series of probes and primers were used to detect the various mRNA transcripts of the genes of β-Actin (human cell line only), and of STAT1 and GAPDH in mouse and human cell lines. All Taqman probes and primers for the experiments here-in described were supplied as pre-validated sets by Applied Biosystems, Inc. (see Table 2).
The assays were performed on an ABI 7900 instrument, according to the manufacturer's instructions.
Within each experiment, the baseline was set in the exponential phase of the amplification curve, and based on the intersection point of the baselines with the amplification curve, a Ct value was assigned by the instrument. […]

STAT1 mouse mRNA = assay: Initial screen of siNAs: STAT1 mRNA knock-down in NIH 3T3 cells (96-well transfection, Taqman RT-PCR); format: cell-based; conditions: 10 nM siNA, 24 hrs, normalized against GAPDH, average of 2 experiments
Experimental: NIH 3T3 (mouse; ATCC cat# CRL-1658): Cells were cultured at 37° C. in the presence of 5% CO2 and grown in Dulbecco's modified Eagle's medium (DMEM) with 4 mM L-glutamine adjusted to contain 1.5 g/L sodium bicarbonate and 4.5 g/L glucose and supplemented with fetal bovine serum at a final concentration of 10%, 100 μg/mL of streptomycin, and 100 U/mL penicillin.
as §1, §2, §3, §4, §5, §6, §7, §8
The assays were performed on an ABI 7900 instrument, according to the manufacturer's instructions. […]

Substance	% KD Human (STAT1 human mRNA)	% KD Mouse (STAT1 mouse mRNA)
25346-DC: STAT1 siNA duplex, human target site 837; modified strands SEQ ID NO: 29 and 30 (chain 1 CCUGGAAGAUUUACAAGAUTT; chain 2 AUCUUGUAAAUCUUCCAGGUU; chain 1: DNA at AGT, 2'-fluoro at CU, [invAb] at 5' end, 3' end, backbone not given here; chain 2: sugars from the 5' end rrrffmfmmmffffffmmmmm, backbone not given here)	62%	31%
25347-DC: STAT1 siNA duplex, human target site 2318; modified strands SEQ ID NO: 31 and 32 (chain 1 CUGAGAAUAUUCCUGAGAATT; chain 2 UUCUCAGGAAUAUUCUCAGUU; chain 1: DNA at AGT, 2'-fluoro at CU, [invAb] at 5' end, 3' end, backbone not given here; chain 2: sugars from the 5' end rrrffmmmmmfmfffffmmmm, backbone not given here)	93%	57%
25348-DC: STAT1 siNA duplex, human target site 746; modified strands SEQ ID NO: 33 and 34 (chain 1 GCACAGUGAUGUUAGACAATT; chain 2 UUGUCUAACAUCACUGUGCUU; chain 1: DNA at AGT, 2'-fluoro at CU, [invAb] at 5' end, 3' end, backbone not given here; chain 2: sugars from the 5' end rrrfffmmfmffmffmfmfmm, backbone not given here)	51%	37%
25349-DC: STAT1 siNA duplex, human target site 185; modified strands SEQ ID NO: 35 and 36 (chain 1 CCUGCGCGCAGAAAAGUUUTT; chain 2 AAACUUUUCUGCGCGCAGGUU; chain 1: DNA at AGT, 2'-fluoro at CU, [invAb] at 5' end, 3' end, backbone not given here; chain 2: sugars from the 5' end rrrfffffffmfmfmfmmmmm, backbone not given here)	91%	33%
25350-DC: STAT1 siNA duplex, human target site 190; modified strands SEQ ID NO: 37 and 38 (chain 1 GCGCAGAAAAGUUUCAUUUTT; chain 2 AAAUGAAACUUUUCUGCGCUU; chain 1: DNA at AGT, 2'-fluoro at CU, [invAb] at 5' end, 3' end, backbone not given here; chain 2: sugars from the 5' end rrrfmmmmfffffffmfmfmm, backbone not given here)	82%	31%
25352-DC: STAT1 siNA duplex, human target site 540; modified strands SEQ ID NO: 41 and 42 (chain 1 GCUGGAUGAUCAAUAUAGUTT; chain 2 ACUAUAUUGAUCAUCCAGCUU; chain 1: DNA at AGT, 2'-fluoro at CU, [invAb] at 5' end, 3' end, backbone not given here; chain 2: sugars from the 5' end rrrmfmffmmffmfffmmfmm, backbone not given here)	91%	34%
25353-DC: STAT1 siNA duplex, human target site 2253; modified strands SEQ ID NO: 43 and 44 (chain 1 CACGAAGAAAGAACUUUCUTT; chain 2 AGAAAGUUCUUUCUUCGUGUU; chain 1: DNA at AGT, 2'-fluoro at CU, [invAb] at 5' end, 3' end, backbone not given here; chain 2: sugars from the 5' end rrrmmmffffffffffmfmmm, backbone not given here)	86%	79%
25354-DC: STAT1 siNA duplex, human target site 678; modified strands SEQ ID NO: 45 and 46 (chain 1 GAAGGAAGAAAGGAAAAUUTT; chain 2 AAUUUUCCUUUCUUCCUUCUU; chain 1: sugars from the 5' end d17 f2 d2, [invAb] at 5' end, 3' end, backbone not given here; chain 2: sugars from the 5' end r3 f16 m2, backbone not given here)	91%	80%
25355-DC: STAT1 siNA duplex, human target site 1126; modified strands SEQ ID NO: 47 and 48 (chain 1 CUGCAGAACUGGUUCACUATT; chain 2 UAGUGAACCAGUUCUGCAGUU; chain 1: DNA at AGT, 2'-fluoro at CU, [invAb] at 5' end, 3' end, backbone not given here; chain 2: sugars from the 5' end rrrfmmmffmmffffmfmmmm, backbone not given here)	90%	35%
25356-DC: STAT1 siNA duplex, human target site 1115; modified strands SEQ ID NO: 49 and 50 (chain 1 GCUUGGAUCAGCUGCAGAATT; chain 2 UUCUGCAGCUGAUCCAAGCUU; chain 1: DNA at AGT, 2'-fluoro at CU, [invAb] at 5' end, 3' end, backbone not given here; chain 2: sugars from the 5' end rrrfmfmmffmmfffmmmfmm, backbone not given here)	43%	35%
25357-DC: STAT1 siNA duplex, human target site 2285; modified strands SEQ ID NO: 51 and 52 (chain 1 CUGACAUCAUUCGCAAUUATT; chain 2 UAAUUGCGAAUGAUGUCAGUU; chain 1: DNA at AGT, 2'-fluoro at CU, [invAb] at 5' end, 3' end, backbone not given here; chain 2: sugars from the 5' end rrrffmfmmmfmmfmffmmmm, backbone not given here)	93%	29%
25358-DC: STAT1 siNA duplex, human target site 1020; modified strands SEQ ID NO: 53 and 54 (chain 1 CACUGAACUUACCCAGAAUTT; chain 2 AUUCUGGGUAAGUUCAGUGUU; chain 1: DNA at AGT, 2'-fluoro at CU, [invAb] at 5' end, 3' end, backbone not given here; chain 2: sugars from the 5' end rrrffmmmfmmmfffmmfmmm, backbone not given here)	79%	17%
